Source: patent publication US20210284621A1 (priority 2018, published 2021)

Tests used:
CB1 receptor [1] = target: T1, CB1 receptor (Homo sapiens, UniProt P21554); test: CB1 competitive radioligand binding assay ([3H] SR141716A); parameters: expressed in transfected cells; host or cells: Chem-1 cells; details: for inhibition at 0.5 µM: 0.5 μM compound, 2.0 nM [3H] SR141716A, 90 min 37° C.
Description: (§1) J Med Chem. 41(26): 5177-5187 (1998); and Munro S., et al. Molecular characterization of a peripheral receptor for cannabinoids. Nature 365:61-65 (1993).
CB1 Radioligand Binding Assay: A compound of the invention (0.5 μM in 1% DMSO) was incubated with Chem-1 cells expressing human recombinant CB1 receptor in buffer (50 mM HEPES, pH 7.4, 5 mM MgCl2, 1 mM CaCl2, 0.2% BSA) for 90 minutes at 37° C. in the presence of 2.0 nM [H^3] SR141716A (CB1 radioligand). % Inhibition was determined as a function of radioligand binding to the CB1 receptor.

CB2 receptor [2] = target: T2, CB2 receptor (Homo sapiens, UniProt P34972); test: CB2 competitive radioligand binding assay ([3H] WIN-55,212-2); parameters: expressed in transfected cells; host or cells: CHO-K1 cells; details: for inhibition at 0.05 µM: 0.05 μM compound, 2.4 nM [3H] WIN-55,212-2, 90 min 37° C.
T2 sequence (P34972 whole entry): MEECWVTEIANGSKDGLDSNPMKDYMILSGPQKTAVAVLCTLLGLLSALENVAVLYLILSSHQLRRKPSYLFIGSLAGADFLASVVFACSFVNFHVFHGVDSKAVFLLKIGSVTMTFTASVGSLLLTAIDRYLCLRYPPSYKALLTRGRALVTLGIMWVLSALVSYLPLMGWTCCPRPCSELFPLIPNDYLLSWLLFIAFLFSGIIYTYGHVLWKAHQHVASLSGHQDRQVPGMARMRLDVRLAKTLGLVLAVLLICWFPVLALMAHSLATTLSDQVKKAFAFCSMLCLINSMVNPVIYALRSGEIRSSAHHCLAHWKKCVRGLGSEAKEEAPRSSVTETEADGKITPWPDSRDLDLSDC
Description: as §1
CB2 Radioligand Binding Assay: A compound of the invention (0.05 μM in 1% DMSO) was incubated with CHO-K1 cells expressing human recombinant CB2 receptor in buffer (20 mM HEPES, pH 7.0, 0.5% BSA) for 90 minutes at 37° C. in the presence of 2.4 nM [H^3] WIN-55,212-2 (CB2 radioligand). % Inhibition was determined as a function of radioligand binding to the […].

CB1 receptor [3] = target: T1, CB1 receptor; test: cell-based; parameters: host or cells: PathHunter cell lines; details: PathHunter agonist mode; read-out: CB1 Activity (β-Arrestin)
Description: (§2) The PathHunter® β-Arrestin assay monitors the activation of a GPCR in a homogenous, non-imaging assay format using a technology developed by DiscoverX called Enzyme Fragment Complementation (EFC) with β-galactosidase (3-Gal) as the functional reporter. […] EA is fused to β-Arrestin and PK is fused to the GPCR of interest.
(§3) PathHunter cell lines were expanded from freezer stocks according to standard procedures. Cells were seeded in a total volume of 20 μL into white walled, 384-well microplates and incubated at 37° C. for the appropriate time prior to testing. For agonist activity determination, cells were incubated with sample to induce response. Intermediate dilution of sample stocks was performed to generate 5× sample in assay buffer. 5 μL of 5× sample was added to cells and incubated at 37° C. or room temperature for 90 to 180 minutes. Vehicle concentration was 1%. Assay signal was generated through a single addition of 12.5 or 15 μL (50% v/v) of PathHunter Detection reagent cocktail, followed by a one hour incubation at room temperature. Microplates were read following signal generation with a PerkinElmer Envision™ instrument for chemiluminescent signal detection. Compound activity was analyzed using CBIS data analysis suite (ChemInnovation, CA). For agonist assays, percentage activity was calculated using the following formula: % Activity=100%×(mean RLU of test sample− mean RLU of vehicle control)/(mean MAX control ligand− mean RLU of vehicle control).

CB2 receptor [4] = target: T2, CB2 receptor; test: cell-based; parameters: host or cells: cAMP Hunter cell lines; details: PathHunter agonist mode; read-out: CB2 Activity (β-Arrestin)
Description: as §2, §3

LPS-induced PBMCs = test: Inflammatory cytokine release from LPS-induced PBMCs (Luminex); format: cell-based, human; details: fold change from LPS-treated PBMCs, compounds 10 μM (DEX 1 μg/ml) 2 h, then LPS 0.1 μg/ml 24 h, negative = reduced
Description: Compounds of the invention were assayed for their effect on inflammatory cytokine release from lipopolysaccharides (LPS)-induced PBMCs, isolated from a human blood sample, the results of which are provided in Table 7 as fold change. Exemplary methods for quantifying secretion of inflammatory cytokines in PBMCs are known in the art, for example, as described in Hailer et al., Infection and Immunity. 68(2):752-759 (2000); and Merlini et al., Frontiers in Immunology. 7:614 (2016); each of which is incorporated herein by reference with respect to methods for evaluating cytokine release in PBMCs.
In brief, human blood samples from healthy volunteers were collected and PBMCs were isolated. PBMCs were cultured and each compound was assayed in triplicate at a final concentration of 10 μM for 2 hours. 1 μg/ml dexamethasone (DEX) served as a positive control. LPS was added at a final concentration of 0.1 μg/ml and further incubated for 24 hours. At the end of the incubation, the supernatants were collected and the levels of a panel of secreted cytokines were measured by a Human Magnetic Luminex® assay (R&D). The results in Table 7 are presented as a fold change from LPS-treated PBMCs. Reduced levels are expressed by negative values. OOR denotes values that are out of the standard curve range for the specific cytokine and thus, could not be accurately measured. Cytotoxicity was also determined. Compounds with cytotoxicity ≥50% was considered cytotoxic. Baseline cytotoxicity of untreated PBMCs was 17% and all compounds presented in Table 7 induced cytotoxicity below 25%.

[5] = OOR = out of standard curve range

T1 sequence (P21554 whole entry): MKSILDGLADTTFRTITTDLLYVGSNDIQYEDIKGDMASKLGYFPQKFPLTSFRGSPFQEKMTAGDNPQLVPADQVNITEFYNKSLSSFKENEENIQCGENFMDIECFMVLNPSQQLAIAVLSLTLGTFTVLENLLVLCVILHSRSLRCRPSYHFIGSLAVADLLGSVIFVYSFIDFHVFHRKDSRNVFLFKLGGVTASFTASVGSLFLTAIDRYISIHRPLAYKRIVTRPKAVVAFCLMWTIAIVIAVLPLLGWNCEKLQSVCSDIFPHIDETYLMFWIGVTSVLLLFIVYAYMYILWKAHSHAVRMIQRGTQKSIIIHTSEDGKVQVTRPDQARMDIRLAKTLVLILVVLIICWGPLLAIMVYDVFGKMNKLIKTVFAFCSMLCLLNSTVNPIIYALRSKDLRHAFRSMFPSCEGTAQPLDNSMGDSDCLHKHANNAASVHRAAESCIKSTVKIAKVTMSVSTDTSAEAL

SMILES | inhibition at 0.5 µM (CB1 receptor [1]) | inhibition at 0.05 µM (CB2 receptor [2]) | Ki (CB1 receptor [1]) | Ki (CB2 receptor [2]) | Fold Selectivity (CB1/CB2) (CB2 receptor [2]; Table 3, ratio of Ki CB1/CB2) | other results
CCCCCCC(C)(C)c1cc(O)c2c(c1)OC(C)(C)[C@@H]1CC=C(C(N)=O)C[C@@H]21 [Compound 4, (6aR,10aR)-1-Hydroxy-6,6-dimethyl-3-(2-methyloctan-2-yl)-6a,7,10,10a-tetrahydro-6H-benzo[c]chromene-9-carboxamide] | 70% | 57% |  |  |  | 
CCCCCCC(C)(C)c1cc(OC)c2c(c1)OC(C)(C)[C@@H]1CC=C(C(=O)NCCO)C[C@@H]21 [Compound 7, (6aR,10aR)-N-(2-Hydroxyethyl)-1-methoxy-6,6-dimethyl-3-(2-methyloctan-2-yl)-6a,7,10,10a-tetrahydro-6H-benzo[c]chromene-9-carboxamide] | 21% | 11% |  |  |  | 
CCCCCCCC(C)(C)c1cc(O)c2c(c1)OC(C)(C)[C@@H]1CC=C(C(=O)O)C[C@@H]21 [Compound 9, (6aR,10aR)-1-Hydroxy-6,6-dimethyl-3-(2-methylnonan-2-yl)-6a,7,10,10a-tetrahydro-6H-benzo[c]chromene-9-carboxylic acid] | -8% | 18% |  |  |  | 
CCCCCCC(C)(C)c1cc(O)c2c(c1)OC(C)(C)[C@@H]1CC=C(C(=O)Oc3ccc(C(N)=S)cc3)C[C@@H]21 [Compound 10, 4-Carbamothioylphenyl (6aR,10aR)-1-hydroxy-6,6-dimethyl-3-(2-methyloctan-2-yl)-6a,7,10,10a-tetrahydro-6H-benzo[c]chromene-9-carboxylate] | 7% | 11% |  |  |  | 
CCCCCCC(C)(C)c1cc(O)c2c(c1)OC(C)(C)[C@@H]1CC=C(C(=O)N[C@H]3CC[C@H](O)CC3)C[C@@H]21 [Compound 17, (6aR,10aR)-1-Hydroxy-N-(trans-4-hydroxycyclohexyl)-6,6-dimethyl-3-(2-methyloctan-2-yl)-6a,7,10,10a-tetrahydro-6H-benzo[c]chromene-9-carboxamide] | 23% | 8% |  |  |  | 
CCCCCCC(C)(C)c1cc(O)c2c(c1)OC(C)(C)[C@@H]1CC=C(C(=O)N[C@H]3CC[C@@H](O)CC3)C[C@@H]21 [Compound 18, (6aR,10aR)-1-Hydroxy-N-(cis-4-hydroxycyclohexyl)-6,6-dimethyl-3-(2-methyloctan-2-yl)-6a,7,10,10a-tetrahydro-6H-benzo[c]chromene-9-carboxamide] | 5% | 26% |  |  |  | 
CCCCCCC(C)(C)c1cc(OC(C)=O)c2c(c1)OC(C)(C)[C@@H]1CC=C(C#N)C[C@@H]21 [Compound 19, (6aR,10aR)-9-Cyano-6,6-dimethyl-3-(2-methyloctan-2-yl)-6a,7,10,10a-tetrahydro-6H-benzo[c]chromen-1-yl acetate] | 111% | 115% | 6.8 nM | 1.9 nM |  | Fold Selectivity (CB1/CB2) (CB2 receptor [2]; Table 2, ratio of Ki CB1/CB2): 4
CC(C)(CCCCCC(=O)O)c1cc(O)c2c(c1)OC(C)(C)[C@@H]1CC=C(C(=O)O)C[C@@H]21 [Compound 40] |  |  |  |  |  | EC50 (CB1 receptor [3]): > 10 µM; EC50 (CB2 receptor [4]): > 1000 nM
CCCCCCC(C)(C)c1cc(O)c2c(c1)OC(C)(C)[C@@H]1CC=C(C(=O)NC34CC5CC(CC(C5)C3)C4)C[C@@H]21 [Compound 42, (6aR,10aR)-N-(adamantan-1-yl)-1-hydroxy-6,6-dimethyl-3-(2-methyloctan-2-yl)-6a,7,10,10a-tetrahydro-6H-benzo[c]chromene-9-carboxamide] |  |  | 59.5 nM | 175 nM | 0.3 | 
CCCCCCC(C)(C)c1cc(O)c2c(c1)OC(C)(C)[C@@H]1CC=C(C(=O)NC34CC5CC(CC(O)(C5)C3)C4)C[C@@H]21 [Compound 43, (6aR,10aR)-1-hydroxy-N-(3-hydroxyadamantan-1-yl)-6,6-dimethyl-3-(2-methyloctan-2-yl)-6a,7,10,10a-tetrahydro-6H-benzo[c]chromene-9-carboxamide] |  |  | 891 nM | 75.6 nM | 11.8 | 
CCCCCCC(C)(C)c1cc(O)c2c(c1)OC(C)(C)[C@@H]1CC=C(C(=O)N[C@@H](C)CCO)C[C@@H]21 [Compound 98, (6aR,10aR)-1-hydroxy-N—((S)-4-hydroxybutan-2-yl)-6,6-dimethyl-3-(2-methyloctan-2-yl)-6a,7,10,10a-tetrahydro-6H-benzo[c]chromene-9-carboxamide] |  |  | 320 nM | 10 nM | 32.0 | 
CCCC(C)(C)c1cc(O)c2c(c1)OC(C)(C)[C@@H]1CC=C(C(=O)NC(C)(C)C(F)(F)F)C[C@@H]21 [Compound 101] |  |  | > 5000 nM | 84 nM | >60 | 
CCCCCCC(C)(C)c1cc(O)c2c(c1)OC(C)(C)[C@@H]1CC=C(C(=O)NC#N)C[C@@H]21 [Compound 106, (6aR,10aR)-N-cyano-1-hydroxy-6,6-dimethyl-3-(2-methyloctan-2-yl)-6a,7,10,10a-tetrahydro-6H-benzo[c]chromene-9-carboxamide] |  |  | 803 nM | 810 nM | 1.0 | 
CC(C)(CCCCCC(=O)O)c1cc(O)c2c(c1)OC(C)(C)[C@@H]1CC=C(C(=O)O)C[C@@H]21 [Compound 111, (6aR,10aR)-3-(7-carboxy-2-methylheptan-2-yl)-1-hydroxy-6,6-dimethyl-6a,7,10,10a-tetrahydro-6H-benzo[c]chromene-9-carboxylic acid] |  |  | > 3000 nM | > 3000 nM |  | 
CCCCCCC(C)(C)c1c(Cl)c(O)c2c(c1Cl)OC(C)(C)[C@@H]1CC=C(C(=O)O)C[C@@H]21 [Compound 113, (6aR,10aR)-2,4-dichloro-1-hydroxy-6,6-dimethyl-3-(2-methyloctan-2-yl)-6a,7,10,10a-tetrahydro-6H-benzo[c]chromene-9-carboxylic acid] |  |  | > 3000 nM | > 3000 nM |  | 
C[C@@H]1C[C@H]2[C@@H]3CCC4=CC(=O)C=C[C@]4(C)[C@@]3(F)[C@@H](O)C[C@]2(C)[C@@]1(O)C(=O)CO [DEX, dexamethasone, reference compound] |  |  |  |  |  | IL17A (LPS-induced PBMCs): −1.5 fold change; IL-1β (LPS-induced PBMCs): −3.8 fold change; IL-4 (LPS-induced PBMCs): −1.5 fold change; IL-6 (LPS-induced PBMCs): −3.9 fold change; IL-8 (LPS-induced PBMCs): −1.0 fold change; IL-10 (LPS-induced PBMCs): −2.0 fold change; MCP-1 (LPS-induced PBMCs): −1.7 fold change; TNFα (LPS-induced PBMCs): −6.0 fold change; IL-12 (p70) (LPS-induced PBMCs; [5]): −4.5 fold change; L-31 (LPS-induced PBMCs; [5]): −1.6 fold change
